In PMC3793924, “Targeting Androgen Receptor/Src Complex Impairs the Aggressive Phenotype of Human Fibrosarcoma Cells” (PLoS ONE, 2013):

Columns and labels:
[1] = test system: MCF-7 cells; assay: Trans-well migration of MCF-7 cells; assay type: cell-based, human; conditions: quiescent MCF-7 cells, 6 h, EGF 100 ng/ml; for Inhibition of EGF-induced motility (transmigration): Casodex 10 μM, S1 and Ss peptides 10 nM
[2] = test system: HT1080 cells; assay: Trans-well migration/invasiveness of HT1080 cells; assay type: cell-based, human; conditions: quiescent HT1080 cells, collagen-coated Trans-well, 6 h, EGF 100 ng/ml; Casodex 10 μM; S1 and Ss peptides 10 nM
[3] = test system: MMP-9; assay: Protease activity of MMP-9 released from HT1080 cells; assay type: cell-based, human; conditions: quiescent HT1080 cells; for Inhibition of EGF-stimulated MMP-9 secretion (protease activity): EGF 100 ng/ml 5 min, Casodex 10 μM, S1 and Ss peptides 10 nM added 30 min before EGF
[4] = test system: HCT116 cells; assay: Trans-well migration of HCT116 cells; assay type: cell-based, human; conditions: quiescent HCT116 cells, 6 h, EGF 100 ng/ml; for Inhibition of EGF-induced motility (Trans-well): Casodex 10 μM, S1 and Ss peptides 10 nM
[5] = test system: NIH3T3 cells; assay: Trans-well migration of NIH3T3 fibroblasts; assay type: cell-based, mouse; conditions: 6 h, EGF 100 ng/ml; for Inhibition of EGF-induced motility (Trans-well): quiescent NIH3T3 fibroblasts, Casodex 10 µM, S1 and Ss peptides 10 nM
Procedure: NIH3T3 cells were used. In A, cells were transfected with 3416 or 3424 ARE-Luc constructs with or without hAR-expressing plasmid and then made quiescent as reported in Methods. Cells were left unstimulated or stimulated for 18 h with 10 nM R1881. Luciferase activity was assayed, normalized using beta-gal as an internal control, and expressed as fold induction. Three independent experiments were performed in triplicate. Means and SEM are shown; n represents the number of experiments. […] After in vivo labeling with BrdU (100 μM), BrdU incorporation was analyzed by IF and expressed as % of total cells. Several independent experiments were performed in duplicate and data derived from at least 700 scored cells for each coverslip. Mean and SEM are shown. n represents the number of experiments. […] Quiescent NIH3T3 fibroblasts were used. In C, cells on coverslips were left unstimulated or stimulated for 18 h with the indicated compounds. […] After in vivo pulse with BrdU (100 μM), BrdU incorporation was analyzed by IF and expressed as % of total cells. Several independent experiments were performed in duplicate and the results were derived from at least 500 scored cells for each coverslip. Mean and SEM are shown. n represents the number of experiments. […] The Western blot of MCF-7 cell lysate with the anti-tubulin or the anti-EGFR antibody is shown for comparison. In D, cells were left untreated or treated for 6 h with the indicated compounds. […] Cells were allowed to migrate in collagen pre-coated Trans-well filters. Migrated cells were stained and counted as reported in Methods.

[6] = test system: NIH3T3 cells; assay: BrdU incorporation in NIH3T3 fibroblasts; assay type: cell-based, mouse; conditions: EGF 100 ng/ml, 18 h; for Inhibition of EGF-induced BrdU incorporation: quiescent NIH3T3 fibroblasts, Casodex 10 μM, S1 and Ss peptides 1 nM
Procedure: NIH3T3 cells were used. In A, cells were transfected with 3416 or 3424 ARE-Luc constructs with or without hAR-expressing plasmid and then made quiescent as reported in Methods. Cells were left unstimulated or stimulated for 18 h with 10 nM R1881. Luciferase activity was assayed, normalized using beta-gal as an internal control, and expressed as fold induction. Three independent experiments were performed in triplicate. Means and SEM are shown; n represents the number of experiments. […] After in vivo labeling with BrdU (100 μM), BrdU incorporation was analyzed by IF and expressed as % of total cells. Several independent experiments were performed in duplicate and data derived from at least 700 scored cells for each coverslip. Mean and SEM are shown. n represents the number of experiments. […] Quiescent NIH3T3 fibroblasts were used. In C, cells on coverslips were left unstimulated or stimulated for 18 h with the indicated compounds. […] After in vivo pulse with BrdU (100 μM), BrdU incorporation was analyzed by IF and expressed as % of total cells. Several independent experiments were performed in duplicate and the results were derived from at least 500 scored cells for each coverslip. Mean and SEM are shown. n represents the number of experiments. […] The Western blot of MCF-7 cell lysate with the anti-tubulin or the anti-EGFR antibody is shown for comparison. In D, cells were left untreated or treated for 6 h with the indicated compounds. […] Cells were allowed to migrate in collagen pre-coated Trans-well filters. Migrated cells were stained and counted as reported in Methods. Results were derived from several independent experiments, each performed in duplicate. Data are expressed as relative increase. Mean and SEM are shown. n represents the number of experiments. […] (PPTX) Click here for additional data file.

[7] = biological target: T1, Src tyrosine kinase (Homo sapiens, UniProt P12931); assay: Src kinase activity in immune complexes from HT1080 cells (enolase substrate); assay type: cell-based; conditions: quiescent HT1080 cells, EGF 100 ng/ml 10 min; S1 and Ss peptides 1 nM; Casodex 10 μM
T1 construct: lysates were immune-precipitated with the anti-Src MAb and Src activity in immune complexes was assayed using acidified enolase; endogenous in cells; host or cells: HT1080 human fibrosarcoma cells
Procedure: (§1) Quiescent HT1080 cells were used. […] Casodex (at 10 μM) was used for comparison with the S1 peptide. Upper section in A, Western blot of HT1080 cell lysates with anti-EGFR antibody. […] In B, lysates were immune-precipitated with the anti-Src MAb and Src activity in immune complexes was assayed using acidified enolase, as a substrate. In C, cells on coverslips were left untreated or treated for 18 h with the indicated compounds. After in vivo pulse with BrdU (100 μM), BrdU incorporation was analyzed by IF and expressed as % of total nuclei. Several independent experiments were performed in duplicate and the results were obtained from at least 500 scored cells for each coverslip. Mean and SEM are shown. n represents the number of experiments.
(§2) Lysates (at 2 mg/ml protein concentration) were prepared as described. […] The Src tyrosine kinase activity in immunocomplexes was assayed using enolase (Sigma) as a substrate.

[8] = test system: KP-2 cells; assay: Trans-well migration of KP-2 cells; assay type: cell-based, human; conditions: quiescent KP-2 cells, 6 h, EGF 100 ng/ml; for Inhibition of EGF-induced motility (transmigration): Casodex 10 μM, S1 and Ss peptides 10 nM
[9] = biological target: T2, EGFR/AR/Src complex (Homo sapiens, UniProt P12931); assay: Co-immunoprecipitation of EGFR/AR/Src complex in HT1080 cells; assay type: cell-based; conditions: quiescent HT1080 cells; for Effect on EGF-induced EGFR/AR/Src complex assembly: EGF 100 ng/ml 10 min, S1 and Ss peptides 1 nM, anti-EGFR immunoprecipitation
T2 construct: endogenous in cells; host or cells: HT1080 human fibrosarcoma cells
Procedure: as §1, §2

In the case of `CC(O)(CS(=O)(=O)c1ccc(F)cc1)C(=O)Nc1ccc(C#N)c(C(F)(F)F)c1` (centres unmarked) [Casodex], the “Inhibition of EGF-induced motility (transmigration)” value (shortened to “Inhibition … (transmigration)”) [1] is reported as “inhibited to a similar extent”, the “Inhibition of EGF-induced invasiveness (trans-migration)” value (“Inhibition of EGF-induced invasiveness” for short) [2] is reported as “inhibited to a similar extent” and the “Inhibition of EGF-stimulated MMP-9 secretion (protease activity)” value (shortened to “Inhibition … (protease activity)”) [3] is reported as “inhibits this response”. The “Inhibition of EGF-induced motility (Trans-well)” value (from here on “Inhibition … (Trans-well)”) [4] was “similarly inhibit these EGF-elicited responses”, the “Inhibition … (Trans-well)” value [5] was “significantly inhibit both the responses” and the “Inhibition of EGF-induced BrdU incorporation” value [6] was “significantly inhibit both the responses”. The “Inhibition of EGF-triggered Src activity stimulation” value [7] was “This inhibition is comparable to that observed by treatment of cells with 10 μM Casodex” and the “Inhibition … (transmigration)” value [8] was “inhibit both DNA synthesis and motility”.
In the case of “EGF: epidermal growth factor (Roche), used as stimulus at 100 ng/ml”, the “Motility in transmigration assay upon stimulation” value [1] is reported as “significantly increases the motility”, the “Increase of protease activity of MMP-9 released” value ([3]; EGF 100 ng/ml, 5 min) is reported as “about 2 fold” and the “Association of EGF-R with AR and Src upon stimulation” value ([9]; EGF 100 ng/ml, 10 min) is reported as “induces association of EGF-R with AR and Src”. For the same compound, the Motility upon stimulation [4] was “robustly increases”, the Motility upon stimulation ([5]; quiescent NIH3T3 cells) was “significantly increases” and the “BrdU incorporation (DNA synthesis) upon stimulation with the compound alone” value ([6]; quiescent NIH3T3 cells, R1881 10 nM) was “significantly increases BrdU incorporation”. The Motility upon stimulation [8] was “significantly increases”.
Ac-PPPHPHARIK-NH2 [S1 peptide] was tested, and the “Inhibition … (transmigration)” value [1] was “inhibited to a similar extent”, the “Inhibition of EGF-induced invasiveness” value [2] was “inhibited to a similar extent” and the “Inhibition … (protease activity)” value [3] was “inhibits the EGF effect on MMP-9 secretion”. For the same compound, the “Effect on EGF-induced EGFR/AR/Src complex assembly” value [9] was “abolishes AR/Src association with EGF-R”, the “Inhibition … (Trans-well)” value [4] was “similarly inhibit these EGF-elicited responses” and the “Inhibition … (Trans-well)” value [5] was “significantly inhibit both the responses”. The “Inhibition of EGF-induced BrdU incorporation” value [6] was “significantly inhibit both the responses”, the “Inhibition of EGF-triggered Src activity stimulation” value [7] was “completely abolishes” and the “Inhibition … (transmigration)” value [8] was “inhibit both DNA synthesis and motility”.
With Ac-HPKPARIPHP-NH2 [Ss peptide] the “Inhibition of EGF-induced invasiveness” value [2] was “not by Ss peptide”, the “Inhibition … (protease activity)” value [3] was “negligible inhibitory effect” and the “Effect on EGF-induced EGFR/AR/Src complex assembly” value [9] was “only slightly affects”. The “Inhibition … (Trans-well)” value [4] was “does not interfere with the EGF-elicited responses”, the “Inhibition … (Trans-well)” value [5] was “slightly modifies” and the “Inhibition of EGF-induced BrdU incorporation” value [6] was “slightly modifies DNA synthesis”. For the same compound, the “Inhibition of EGF-triggered Src activity stimulation” value [7] was “only slightly affects” and the “Inhibition … (transmigration)” value [8] was “does not interfere with the EGF-elicited responses”.
